Values after ≈ are worked out from the molar mass of the structure shown. Starred links: 1 amine or outer side, 2 acyl side, 3 side chain; linkers in the order of their positions; H or OH if unused. Non-standard residues stand in square brackets, D forms with d. Residues, ends and D or L forms follow the SMILES beside them. Groups on a side chain read outwards from the residue. *: point of attachment. C18 diacid = O=C(O)CCCCCCCCCCCCCCCCC(=O)*; γGlu = O=C(O)[C@H](CCC(=O)[*:2])N[*:1]; Palmitoyl = CCCCCCCCCCCCCCCC(=O)*; pGlu = O=C1CC[C@@H](C(=O)O)N1; AEEA = NCCOCCOCC(=O)O; Aib = CC(C)(N)C(=O)O
Columns and labels:
[1] = physchem
[2] = Solubility in buffer
[3] = target: T1, GLP-1R (Homo sapiens, UniProt P43220); experiment: GLP-1 receptor-mediated cAMP induction, luciferase reporter gene antagonism assay; assay type: cell-based; design: host or cells: HEK 293; details: antagonism of 0.05 nM GLP-1, HEK 293 cells
How it was run: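 HEK 293 cells cotransfected with human GLP-1 receptor and CRE-luciferase were serum-deprived 16 h, then given serial peptide dilutions followed by 0.05 nM GLP-1 and incubated 5 h at 37° C.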
Target sequence in this assay (P43220 24-463): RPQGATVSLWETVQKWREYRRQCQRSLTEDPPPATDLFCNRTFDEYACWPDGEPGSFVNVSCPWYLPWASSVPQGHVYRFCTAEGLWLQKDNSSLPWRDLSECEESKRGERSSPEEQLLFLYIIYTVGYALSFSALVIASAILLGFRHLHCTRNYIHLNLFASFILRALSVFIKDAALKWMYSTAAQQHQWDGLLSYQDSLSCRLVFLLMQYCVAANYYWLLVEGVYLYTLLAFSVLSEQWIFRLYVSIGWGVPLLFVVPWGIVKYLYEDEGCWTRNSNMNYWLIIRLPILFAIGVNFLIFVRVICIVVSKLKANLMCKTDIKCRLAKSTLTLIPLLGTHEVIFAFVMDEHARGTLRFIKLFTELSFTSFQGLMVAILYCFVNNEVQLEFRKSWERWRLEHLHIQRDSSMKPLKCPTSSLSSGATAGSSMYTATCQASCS

[4] = target: T1, GLP-1R; experiment: IC50 nM; design: host or cells: HEK 293
Experimental: Table printed on a drawing sheet, Fig. 10
Head of the field: IC50 nM
Where the first naming reader finds the target: description_of_the_figure: as measured in an in vitro assay using GLP-1R over-expressing 293 cells
Target sequence in this assay (P43220 24-463 limits assumed): as the sequence (P43220 24-463) above

[5] = pH 7.7, Solubility [mg/mL] 80 mM AmBicarb pH7.7
[6] = Table 4, Aib variants of 9-40am Jant4 K40[C16], read-out: Bioactivity IC50
[7] = pH 7.7, Solubility 80 mM AmeBicarb pH7.7
[8] = Table 3, amino acid substitution variants of Jant4-K40, read-out: Bioactivity IC50
[9] = pH 7.7, Solubility [mg/mL] PBS pH7.7

Work on `CCCCCCCCCCCCCCCC(=O)NCCCC[C@H](NC(=O)[C@H](CO)NC(=O)[C@@H]1CCCN1C(=O)[C@@H]1CCCN1C(=O)[C@@H]1CCCN1C(=O)[C@H](C)NC(=O)CNC(=O)[C@H](CO)NC(=O)[C@H](CO)NC(=O)[C@@H]1CCCN1C(=O)CNC(=O)CNC(=O)[C@H](CCCCN)NC(=O)[C@@H](NC(=O)C(C)(C)NC(=O)[C@H](Cc1c[nH]c2ccccc12)NC(=O)[C@H](C)NC(=O)[C@@H](NC(=O)[C@H](Cc1ccccc1)NC(=O)[C@H](CCC(=O)O)NC(=O)[C@H](CCCNC(=N)N)NC(=O)[C@@H](NC(=O)[C@H](C)NC(=O)[C@H](CCC(N)=O)NC(=O)[C@H](CCC(=O)O)NC(=O)[C@H](CCC(=O)O)NC(=O)[C@H](CC(C)C)NC(=O)[C@H](Cc1ccc(O)cc1)NC(=O)[C@H](CO)NC(=O)[C@H](CO)NC(=O)[C@@H](NC(=O)[C@@H](N)CC(=O)O)C(C)C)C(C)C)[C@@H](C)CC)C(C)C)C(N)=O` [compound 44] (H-DVSSYLEEQAVREFIAW[Aib]VKGGPSSGAPPPSK(Palmitoyl)-NH2) yielded a solubility [1, 5] of 19000 µg/mL (≈ 5260 µM), a solubility ([2]; PBS, pH 7.7, Solubility [mg/mL] PBS pH7.7, Table 4, PBS pH7.7) of 100 µg/mL (≈ 27.7 µM) and an IC50 [3, 6] of 8 nM.
`CCCCCCCCCCCCCCCC(=O)NCCCC[C@H](NC(=O)[C@H](CO)NC(=O)[C@@H]1CCCN1C(=O)[C@@H]1CCCN1C(=O)[C@@H]1CCCN1C(=O)[C@H](C)NC(=O)CNC(=O)[C@H](CO)NC(=O)[C@H](CO)NC(=O)[C@@H]1CCCN1C(=O)CNC(=O)CNC(=O)[C@H](CCCCN)NC(=O)[C@@H](NC(=O)[C@H](CC(C)C)NC(=O)[C@H](Cc1c[nH]c2ccccc12)NC(=O)[C@H](C)NC(=O)[C@@H](NC(=O)[C@H](Cc1ccccc1)NC(=O)[C@H](CCC(=O)O)NC(=O)[C@H](CCCNC(=N)N)NC(=O)[C@@H](NC(=O)[C@H](C)NC(=O)[C@H](CCC(N)=O)NC(=O)[C@H](CCC(=O)O)NC(=O)[C@H](CCC(=O)O)NC(=O)[C@H](CC(C)C)NC(=O)[C@H](Cc1ccc(O)cc1)NC(=O)[C@H](CO)NC(=O)[C@H](CO)NC(=O)[C@@H](NC(=O)[C@@H](N)CC(=O)O)C(C)C)C(C)C)[C@@H](C)CC)C(C)C)C(N)=O` [compound 47] (H-DVSSYLEEQAVREFIAWLVKGGPSSGAPPPSK(Palmitoyl)-NH2; N-terminus assumed) showed a solubility [1, 5] of 6100 µg/mL (≈ 1680 µM) and a solubility ([2]; 80 mM ammonium bicarbonate buffer, pH 7.7, Solubility 80 mM AmeBicarb pH7.7, Table 3, 80 mM AmeBicarb pH7.7) of 6100 µg/mL (≈ 1680 µM).
For `CCCCCCCCCCCCCCCC(=O)N[C@@H](CCC(=O)NCCOCCOCC(=O)NCCCC[C@H](NC(=O)[C@H](CO)NC(=O)[C@@H]1CCCN1C(=O)[C@@H]1CCCN1C(=O)[C@@H]1CCCN1C(=O)[C@H](C)NC(=O)CNC(=O)[C@H](CO)NC(=O)[C@H](CO)NC(=O)[C@@H]1CCCN1C(=O)CNC(=O)CNC(=O)[C@H](CCCNC(=N)N)NC(=O)[C@@H](NC(=O)[C@H](CC(C)C)NC(=O)[C@H](Cc1c[nH]c2ccccc12)NC(=O)[C@H](CCC(=O)O)NC(=O)[C@@H](NC(=O)[C@H](Cc1ccccc1)NC(=O)[C@H](CCC(=O)O)NC(=O)[C@H](CCCNC(=N)N)NC(=O)[C@@H](NC(=O)[C@H](C)NC(=O)[C@H](CCC(N)=O)NC(=O)[C@H](CCC(=O)O)NC(=O)[C@H](CCC(=O)O)NC(=O)[C@H](CC(C)C)NC(=O)[C@H](Cc1ccc(O)cc1)NC(=O)[C@H](CO)NC(=O)[C@H](CO)NC(=O)[C@@H](NC(=O)[C@@H](N)CC(=O)O)C(C)C)C(C)C)[C@@H](C)CC)C(C)C)C(=O)O)C(=O)O` [compound 78] (H-DVSSYLEEQAVREFIEWLVRGGPSSGAPPPSK([AEEA-γGlu-Palmitoyl])-OH; N-terminus assumed), the solubility [1, 7] was > 20000 µg/mL and the IC50 [3, 8] was 19 nM.
With `CCCCCCCCCCCCCCCC(=O)N[C@@H](CCC(=O)NCCOCCOCC(=O)NCCCC[C@H](NC(=O)[C@H](CO)NC(=O)[C@@H]1CCCN1C(=O)[C@@H]1CCCN1C(=O)[C@@H]1CCCN1C(=O)[C@H](C)NC(=O)CNC(=O)[C@H](CO)NC(=O)[C@H](CO)NC(=O)[C@@H]1CCCN1C(=O)CNC(=O)CNC(=O)C(C)(C)NC(=O)[C@H](CCCNC(=N)N)NC(=O)[C@H](CC(C)C)NC(=O)[C@H](Cc1c[nH]c2ccccc12)NC(=O)[C@H](CCC(=O)O)NC(=O)[C@@H](NC(=O)[C@H](Cc1ccccc1)NC(=O)[C@H](CCC(=O)O)NC(=O)[C@H](CCCNC(=N)N)NC(=O)[C@@H](NC(=O)[C@H](C)NC(=O)[C@H](CCC(N)=O)NC(=O)[C@H](CCC(=O)O)NC(=O)[C@H](CCC(=O)O)NC(=O)[C@H](CC(C)C)NC(=O)[C@H](Cc1ccc(O)cc1)NC(=O)[C@H](CO)NC(=O)[C@H](CO)NC(=O)[C@@H](NC(=O)[C@@H](N)CC(=O)O)C(C)C)C(C)C)[C@@H](C)CC)C(=O)O)C(=O)O` [compound 80] (H-DVSSYLEEQAVREFIEWLR[Aib]GGPSSGAPPPSK([AEEA-γGlu-Palmitoyl])-OH; N-terminus assumed) the solubility [1, 7] was > 20000 µg/mL and the IC50 [3, 8] was 106 nM.
In the case of `CCCCCCCCCCCCCCCC(=O)NCCCC[C@H](NC(=O)[C@H](CO)NC(=O)[C@@H]1CCCN1C(=O)[C@@H]1CCCN1C(=O)[C@@H]1CCCN1C(=O)[C@H](C)NC(=O)CNC(=O)[C@H](CO)NC(=O)[C@H](CO)NC(=O)[C@@H]1CCCN1C(=O)CNC(=O)CNC(=O)[C@H](CCCCN)NC(=O)C(C)(C)NC(=O)[C@H](CC(C)C)NC(=O)[C@H](Cc1c[nH]c2ccccc12)NC(=O)[C@H](C)NC(=O)[C@@H](NC(=O)[C@H](Cc1ccccc1)NC(=O)[C@H](CCC(=O)O)NC(=O)[C@H](CCCNC(=N)N)NC(=O)[C@@H](NC(=O)[C@H](C)NC(=O)[C@H](CCC(N)=O)NC(=O)[C@H](CCC(=O)O)NC(=O)[C@H](CCC(=O)O)NC(=O)[C@H](CC(C)C)NC(=O)[C@H](Cc1ccc(O)cc1)NC(=O)[C@H](CO)NC(=O)[C@H](CO)NC(=O)[C@@H](NC(=O)[C@@H](N)CC(=O)O)C(C)C)C(C)C)[C@@H](C)CC)C(N)=O` [compound 81] (H-DVSSYLEEQAVREFIAWL[Aib]KGGPSSGAPPPSK(Palmitoyl)-NH2), the solubility [1, 5] is reported as 19000 µg/mL (≈ 5240 µM), the solubility [1, 9] is reported as 1600 µg/mL (≈ 441 µM) and the IC50 [3, 6] is reported as 23 nM.
For `CCCCCCCCCCCCCCCC(=O)NCCCC[C@H](NC(=O)[C@H](CO)NC(=O)[C@@H]1CCCN1C(=O)[C@@H]1CCCN1C(=O)[C@@H]1CCCN1C(=O)[C@H](C)NC(=O)CNC(=O)[C@H](CO)NC(=O)[C@H](CO)NC(=O)[C@@H]1CCCN1C(=O)CNC(=O)CNC(=O)C(C)(C)NC(=O)[C@@H](NC(=O)[C@H](CCCCN)NC(=O)[C@H](Cc1c[nH]c2ccccc12)NC(=O)[C@H](C)NC(=O)[C@@H](NC(=O)[C@H](Cc1ccccc1)NC(=O)[C@H](CCC(=O)O)NC(=O)[C@H](CCCNC(=N)N)NC(=O)[C@@H](NC(=O)[C@H](C)NC(=O)[C@H](CCC(N)=O)NC(=O)[C@H](CCC(=O)O)NC(=O)[C@H](CCC(=O)O)NC(=O)[C@H](CC(C)C)NC(=O)[C@H](Cc1ccc(O)cc1)NC(=O)[C@H](CO)NC(=O)[C@H](CO)NC(=O)[C@@H](NC(=O)[C@@H](N)CC(=O)O)C(C)C)C(C)C)[C@@H](C)CC)C(C)C)C(N)=O` [compound 82] (H-DVSSYLEEQAVREFIAWKV[Aib]GGPSSGAPPPSK(Palmitoyl)-NH2), the solubility [1, 5] was 14200 µg/mL (≈ 3930 µM), the solubility [1, 9] was 100 µg/mL (≈ 27.7 µM) and the IC50 [3, 6] was 6 nM.
Molecule `CC[C@H](C)[C@H](NC(=O)[C@H](Cc1ccccc1)NC(=O)[C@H](CCC(=O)O)NC(=O)[C@H](CCCNC(=N)N)NC(=O)[C@@H](NC(=O)[C@H](C)NC(=O)[C@H](CCC(N)=O)NC(=O)[C@H](CCC(=O)O)NC(=O)[C@H](CCC(=O)O)NC(=O)[C@H](CC(C)C)NC(=O)[C@H](Cc1ccc(O)cc1)NC(=O)[C@H](CO)NC(=O)[C@H](CO)NC(=O)[C@@H](NC(=O)[C@H](CC(=O)O)NC(=O)CCCCCCCCCCCCCCCCC(=O)O)C(C)C)C(C)C)C(=O)N[C@@H](C)C(=O)N[C@@H](Cc1c[nH]c2ccccc12)C(=O)N[C@@H](CC(C)C)C(=O)N[C@H](C(=O)N[C@@H](CCCNC(=N)N)C(=O)NCC(=O)NCC(=O)N1CCC[C@H]1C(=O)N[C@@H](CO)C(=O)N[C@@H](CO)C(=O)NCC(=O)N[C@@H](C)C(=O)N1CCC[C@H]1C(=O)N1CCC[C@H]1C(=O)N1CCC[C@H]1C(=O)N[C@@H](CO)C(=O)O)C(C)C` [compound 1416] ({C18 diacid}-DVSSYLEEQAVREFIAWLVRGGPSSGAPPPS-OH) has an IC50 [4] of 36 nM.
`CC[C@H](C)[C@H](NC(=O)[C@H](Cc1ccccc1)NC(=O)[C@H](CCC(=O)O)NC(=O)[C@H](CCCNC(=N)N)NC(=O)[C@@H](NC(=O)[C@H](C)NC(=O)[C@H](CCC(N)=O)NC(=O)[C@H](CCC(=O)O)NC(=O)[C@H](CCC(=O)O)NC(=O)[C@H](CC(C)C)NC(=O)[C@H](Cc1ccc(O)cc1)NC(=O)[C@H](CO)NC(=O)[C@H](CO)NC(=O)[C@@H](NC(=O)[C@H](CC(=O)O)NC(=O)CNC(=O)[C@H](CCCCNC(=O)CCCCCCCCCCCCCCCCC(=O)O)NC(=O)[C@@H]1CCC(=O)N1)C(C)C)C(C)C)C(=O)N[C@@H](C)C(=O)N[C@@H](Cc1c[nH]c2ccccc12)C(=O)N[C@@H](CC(C)C)C(=O)N[C@H](C(=O)N[C@@H](CCCNC(=N)N)C(=O)NCC(=O)NCC(=O)N1CCC[C@H]1C(=O)N[C@@H](CO)C(=O)N[C@@H](CO)C(=O)NCC(=O)N[C@@H](C)C(=O)N1CCC[C@H]1C(=O)N1CCC[C@H]1C(=O)N1CCC[C@H]1C(=O)N[C@@H](CO)C(=O)O)C(C)C` [compound 1417] ([pGlu]K(C18 diacid)GDVSSYLEEQAVREFIAWLVRGGPSSGAPPPS-OH) gave an IC50 [4] of 80 nM.
For “H-DVSSYLEEQAVREFIAWLVKGGPSSGAPPPSK-NH2 [compound 95]”, the solubility [1, 5] was 12700 µg/mL and the IC50 ([3]; Table 2, C16 linker variants of 9-40amide Jant4 K40[X], read-out: Biactivity IC50) was 281 nM.

From patent US20240058422A1, “GLUCAGON-LIKE PEPTIDE-1 RECEPTOR ANTAGONISTS” (INDIANA UNIVERSITY RESEARCH AND TECHNOLOGY CORPORATION, priority 2022, published 2024)
